Reference: patent publication US9833423B2 (KOREA RESEARCH INSTITUTE OF CHEMICAL TECHNOLOGY, priority 2011, dated 2017)
In brackets after ≈: the same amount, converted by molar mass. Like-named read-outs stand apart in the source and are kept apart here.

Tests used:
[1] = in vitro; settings: human
[2] = system: Coxsackie-virus B1; assay: Cytopathic effect (CPE) inhibition assay; assay type: cell-based, Coxsackievirus B1; settings: Enterovirus B, HeLa37, 48 h, HeLa, 37° C., 2 days
[3] = system: Polio-virus 3; assay: microbe, parasite or virus in culture; assay type: cell-based, Poliovirus 3; settings: Enterovirus C, HeLa37, 48 h, read-out: Polio-virus 3 EC50
[4] = system: Coxsackie-virus B3; assay: Cytopathic effect (CPE) inhibition assay; assay type: cell-based, Coxsackievirus B3; settings: Enterovirus B, HeLa37, 48 h, HeLa, 37° C., 2 days
[5] = Table 4, read-out: Coxsackie-virus B1 EC50
[6] = Table 4, read-out: Coxsackie-virus B3 EC50
[7] = Table 3, read-out: EC50 Coxsackie-virus B1

Row | Compound | CC50 ([1]; Picorna-virus CC50) [µg/mL] | EC50 [2, 5] [µg/mL] | EC50 [3] [µg/mL] | EC50 [4, 6] [µg/mL] | CC50 ([1]; CC50) [µg/mL] | EC50 [2, 7] [µg/mL] | melting point [°C] | EC50 ([4]; Table 3, read-out: EC50 Coxsackie-virus B3) [µg/mL]
1 | CCCC(=O)NC1(c2ccc(C(C)C)cc2OC(=O)CCC)C(=O)c2cccc(N)c2C1=O (stereo not drawn) [Example 85, 2-(4-Amino-2-butyramido-1,3-dioxo-2,3-dihydro-1H-inden-2-yl)-5-isopropylphenyl butyrate] | 45.9 (≈ 102 µM) | < 0.01 | 0.015 (≈ 0.0333 µM) | < 0.03 | – | – | – | –
2 | CCCCCC(=O)NC1(c2ccc(C(C)C)cc2OC(=O)CCCCC)C(=O)c2cccc(N)c2C1=O (stereo not drawn) [Example 82, 2-(4-Amino-2-hexanamido-1,3-dioxo-2,3-dihydro-1H-inden-2-yl)-5-isopropylphenyl hexanoate] | > 100 | < 0.01 | 0.015 (≈ 0.0296 µM) | < 0.02 | – | – | – | –
3 | CC(=O)Oc1cc(C(C)(C)C)ccc1C1(OC(C)=O)C(=O)c2ccccc2C1=O [Example 15, 2-(2-Acetoxy-1,3-dioxo-2,3-dihydro-1H-inden-2-yl)-5-tert-butylphenyl acetate] | – | – | – | – | 8.26 | 0.015 | 119 to 120 | –
4 | CC(=O)Nc1ccc([N+](=O)[O-])c2c1C(=O)C(O)(c1cc(C)c(C)cc1NC(=O)C(C)C)C2=O (stereo not drawn) [Example 94, N-(2-(4-Acetamido-2-hydroxy-7-nitro-1,3-dioxo-2,3-dihydro-1H-inden-2-yl)-4,5-dimethylphenyl)isobutyramide] | 39.2 (≈ 86.4 µM) | < 0.01 | – | < 0.01 | – | – | – | –
5 | CC(C)c1ccc(C2(OC(=O)c3ccccc3)C(=O)c3ccccc3C2=O)c(O)c1 [Example 23, 2-(2-Hydroxy-4-isopropylphenyl)-1,3-dioxo-2,3-dihydro-1H-inden-2-yl benzoate] | – | – | – | – | 44.3 (≈ 111 µM) | < 0.01 | 117 to 119 | –
6 | CCCC(=O)NC1(c2ccc(C(C)C)cc2OC(=O)CCC)C(=O)c2ccccc2C1=O [Example 76, Butyric acid 2-(2-butyrylamino-1,3-dioxo-indan-2-yl)-5-isopropyl-phenyl ester] | 45.1 (≈ 104 µM) | < 0.01 | – | < 0.04 | – | – | – | –
7 | CCCCCCC(=O)NC1(c2ccc(C(C)C)cc2OC(=O)CCCCCC)C(=O)c2ccccc2C1=O [Example 79, Heptanoic acid 2-(2-heptanoylamino-1,3-dioxo-indan-2-yl)-5-isopropyl-phenyl ester] | 8.94 (≈ 17.2 µM) | < 0.01 | – | < 0.01 | – | – | – | –
8 | CCCCCCC(=O)NC1(c2ccc(C(C)C)cc2OC(=O)CCCCCC)C(=O)c2cccc(N)c2C1=O (stereo not drawn) [Example 83, 2-(4-Amino-2-heptanamido-1,3-dioxo-2,3-dihydro-1H-inden-2-yl)-5-isopropylphenyl heptanoate] | > 100 | < 0.01 | – | < 0.01 | – | – | – | –
9 | COc1cc(C(C)C)ccc1C1(NC(C)=O)C(=O)c2ccccc2C1=O [Example 54, N-(2-(4-Isopropyl-2-methoxyphenyl)-1,3-dioxo-2,3-dihydro-1H-inden-2-yl)acetamide] | – | – | – | – | > 117 | 0.0198 (≈ 0.0563 µM) | 222 to 224 | –
10 | CCC(=O)Oc1cc(C(C)C)ccc1C1(OC(=O)CC)C(=O)c2ccccc2C1=O [Example 21, 2-(1,3-Dioxo-2-(propionyloxy)-2,3-dihydro-1H-inden-2-yl)-5-isopropylphenyl propionate] | – | – | – | – | 16 (≈ 39.2 µM) | < 0.01 | 123 to 125 | –
11 | CCCCOC(=O)Oc1cc(C(C)C)ccc1C1(NC(C)=O)C(=O)c2cccc(N)c2C1=O (stereo not drawn) [Example 96, 2-(2-Acetamido-4-amino-1,3-dioxo-2,3-dihydro-1H-inden-2-yl)-5-isopropylphenyl butyl carbonate2-(2-acetamido-4-amino-1,3-dioxo-2,3-dihydro-1H-inden-2-yl)-5-isopropylphenyl butyl carbonate] | 48.9 (≈ 108 µM) | < 0.01 | 0.03 (≈ 0.0663 µM) | < 0.01 | – | – | – | –
12 | CC(C)C(=O)Nc1cc(C(C)C)ccc1C1(O)C(=O)c2ccccc2C1=O [Example 95, N-(2-(2-Hydroxy-1,3-dioxo-2,3-dihydro-1H-inden-2-yl)-5-isopropylphenyl)isobutyramide] | 27.4 (≈ 75.1 µM) | < 0.01 | – | < 0.01 | – | – | – | –
13 | COC(=O)Oc1cc(C(C)C)ccc1C1(NC(C)=O)C(=O)c2ccccc2C1=O [Example 92, 2-(2-Acetamido-1,3-dioxo-2,3-dihydro-1H-inden-2-yl)-5-isopropylphenyl methyl carbonate] | 43.6 (≈ 110 µM) | < 0.01 | – | < 0.01 | – | – | – | –
14 | CCCC(=O)Oc1cc(C(C)C)ccc1C1(OC(=O)CCC)C(=O)c2ccccc2C1=O [Example 22, 2-(2-(Butyryloxy)-1,3-dioxo-2,3-dihydro-1H-inden-2-yl)-5-isopropylphenyl butyrate] | – | – | – | – | 33.8 (≈ 77.4 µM) | < 0.01 | 98 to 102 | –
15 | COC(=O)NC1(c2ccc(C(C)C)cc2OC(=O)OC)C(=O)c2ccccc2C1=O [Example 48, Methyl 2-(4-isopropyl-2(methoxycarbonyloxy)phenyl)-1,3-dioxo-2,3-dihydro-1H-inden-2-yl carbamate] | – | – | – | – | 46.7 (≈ 114 µM) | < 0.01 | – | < 0.01
16 | CCOC(=O)Oc1cc(C(C)C)ccc1C1(NC(C)=O)C(=O)c2ccccc2C1=O [Example 101, 2-(2-Acetamido-1,3-dioxo-2,3-dihydro-1H-inden-2-yl)-5-isopropylphenyl ethyl carbonate] | 46 (≈ 112 µM) | < 0.01 | – | < 0.01 | – | – | – | –
17 | CCCCC(=O)NC1(c2ccc(C(C)C)cc2OC(=O)C(C)(C)C)C(=O)c2ccccc2C1=O [Example 80, 2,2-Dimethyl-propionic acid 2-(1,3-dioxo-2-pentanoylamino-indan-2-yl)-5-isopropyl-phenyl ester] | > 100 | < 0.01 | – | < 0.01 | – | – | – | –
18 | CC(C)c1ccc(C2(O)C(=O)c3ccccc3C2=O)c(OC(=O)/C=C/c2ccccc2)c1 [Example 30, 2-(2-Hydroxy-1,3-dioxo-2,3-dihydro-1H-inden-2-yl)-5-isopropylphenyl cinnamate] | – | – | – | – | > 100 | < 0.01 | 95 to 97 | –
19 | CCCCC(=O)Oc1cc(C(C)C)ccc1C1(NC(C)=O)C(=O)c2ccccc2C1=O [Example 93, 2-(2-Acetamido-1,3-dioxo-2,3-dihydro-1H-inden-2-yl)-5-isopropylphenyl pentanoate] | 35.2 (≈ 83.5 µM) | < 0.01 | – | < 0.01 | – | – | – | –
20 | CCCCCC(=O)NC1(c2ccc(C(C)C)cc2OC(=O)CCCCC)C(=O)c2ccccc2C1=O [Example 78, Hexanoic acid 2-(2-hexanoylamino-1,3-dioxo-indan-2-yl)-5-isopropyl-phenyl ester] | 68.2 (≈ 139 µM) | < 0.01 | – | < 0.01 | – | – | – | –
21 | CC(=O)NC1(c2ccc(C(C)C)cc2OC(=O)Oc2ccccc2)C(=O)c2ccccc2C1=O [Example 99, Carbonic acid 2-(2-acetylamino-1,3-dioxo-indan-2-yl)-5-isopropyl-phenyl ester phenyl ester] | 38.1 (≈ 83.2 µM) | < 0.01 | – | < 0.01 | – | – | – | –
22 | CCC(=O)NC1(c2ccc(C(C)C)cc2OC(=O)CC)C(=O)c2cccc(N)c2C1=O (stereo not drawn) [Example 84, 2-(4-Amino-1,3-dioxo-2-propionamido-2,3-dihydro-1H-inden-2-yl)-5-isopropylphenyl propionate] | > 100 | < 0.01 | – | < 0.01 | – | – | – | –
23 | CCOC(=O)N(C(C)=O)C1(c2ccc(C(C)C)cc2O)C(=O)c2ccccc2C1=O [Example 102, Ethyl acetyl(2-(2-hydroxy-4-isopropylphenyl)-1,3-dioxo-2,3-dihydro-1H-inden-2-yl)carbamate] | 42.5 (≈ 104 µM) | < 0.01 | – | < 0.01 | – | – | – | –
